Reference: patent US20210395327A1, “Growth Hormone-Releasing Hormone Antagonists and Uses Thereof” (United States Government As Represented By The Department …, priority 2019, published 2021)
Non-standard residues stand in square brackets, D forms with d. Residues, ends and D or L forms follow the SMILES beside them. *: point of attachment. Phenylacetyl(2,3,4,5,6-F5) = O=C(Cc1c(F)c(F)c(F)c(F)c1F)*; Phe(F5) = N[C@@H](Cc1c(F)c(F)c(F)c(F)c1F)C(=O)O; hArg = N=C(N)NCCCC[C@H](N)C(=O)O; 12Ado = NCCCCCCCCCCCC(=O)O; Nle = CCCC[C@H](N)C(=O)O; Abu = CC[C@H](N)C(=O)O

How the values were obtained:
[1] = test system: NCI-N87 stomach cancer cells; test: In vitro cell viability (CellTiter 96), N87; type: cell-based, human
Procedure, shortened: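 Viability by CellTiter 96 aqueous one solution (MTS) after 72 h exposure to antagonist at 5 μM (some at 2 μM), following 24 h starvation in 0.5% FBS. Results given as percentage inhibition relative to MIA602.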

[2] = test system: HT-29 colon cancer cells; test: In vitro cell viability, HT-29; type: cell-based, human; settings: Table 3B; 5 μM for 72 H; MIA-602 = 1
Experimental: The inhibitory effects of the various synthesized GHRH antagonists were tested in cell proliferation assays in various human cancer cell lines including stomach cancer (KATOIII, N87), colon cancer (HT-29), urothelial cancer (J82, RT4), pancreatic cancer (PANC-1, CFPAC-1), prostatic cancer (PC3), breast cancer (MX-1, HCC1806), ovarian cancer (SK-OV-3, OVCAR-3) and lung cancer (HCC827, H460).
(§1) Cell culture. Human cancer cell lines including pancreatic (PANC-1 and CFPAC-1), lung (HCC827 and H460), stomach (NCI-N87 and KATOIII), urothelial (J82, RT4), prostatic (PC3), breast (MX-1 and HCC 1806), colorectal (HT-29), and ovarian (SK-OV-3 and OVCAR-3) were obtained from the American Type Culture Collection (ATCC) and cultured at 37° C. in a humidified 95% air/5% CO2 atmosphere in the medium recommended by ATCC.
In vitro cell viability. Cell viability was analyzed as follows: cancer cells including pancreatic (PANC-1 and CFPAC-1), lung (HCC827 and H460), stomach (NCI-N87 and KATOIII), urothelial (J82, RT4), prostatic (PC3) and breast (MX-1 and HCC 1806), colorectal (HT-29) and ovarian (SK-OV-3 and OVCAR-3) were grown on 96 well plates to ˜60% confluence, the cells were starved for 24 h in culture medium containing 0.5% FBS. Cells were then treated with GHRH antagonists MIA602 AVR compounds at concentrations of 1, 2.5 or 5 μM, or vehicle (0.1% DMSO) in quintuplicates for 72 hours. The medium was replaced every 48 hours. Cell viability was measured using CellTiter 96 aqueous one solution kit (Promega). Inhibitory effects of tested AVR compounds in comparison to that of MIA602 are presented as inhibitory potency.
Inhibitory effects of selected AVR compounds in comparison to that of MIA602 are presented as inhibitory potency (e.g., percentage of inhibition). […] The cell lines tested including lung cancer HCC827 (FIG. 2A), pancreatic cancer CFPAC-1 (FIG. 2B), stomach cancer N87 (FIG. 2C), colon cancer HT-29 (FIG. 2D), breast cancers MX-1 and HCC1806 (FIGS. 2 E, F). Based on the results of cell proliferation assay after cancer cells were treated with antagonist at concentration of 5 μM for 72H, the relative inhibitory potency of AVR antagonists in comparison to MIA-602 is summarized in Table 3 A and B. Over 60 AVR compounds were tested in 12 cancer cell lines.
Based on the results of cell proliferation assay after cancer cells were treated with antagonist at concentration of 5 µM for 72H, * at concentration of 2 µM for 72 H.

[3] = test system: lung cancer HCC827 xenograft; test: Xenograft tumor growth in nude mice, HCC827; type: in vivo; settings: Table 4B, Lung Ca HCC827, 7 weeks, 5 μg/day s.c.
Experimental: The peptides' activity was compared with GHRH antagonist MIA-602. All statistical analyzses were performed from comparing GHRA antagonists to non-treated tumor (control).
Peptides and chemicals. GHRH antagonists MIA-602 and AVR-GHRH antagonists (see Table 2 above) were synthesized by solid phase methods and purified by HPLC. The peptides were dissolved in DMSO and further diluted in 10% 1,2-propanediol. The final concentration of peptides was 50 µg/ml in 10% 1,2-propanediol containing 0.1% of DMSO.
as §1, with “(NCI-N87), prostate” for “(NCI-N87 and KATOIII), urothelial (J82, RT4), prostatic”, “brest” for “breast”, “HCC-1806),” for “HCC 1806),”
Xenograft models of human cancers in nude mice. Female athymic (NCr nu/nu) nude mice, 5- to 6-weeks-old, obtained from the Envigo labs (Tampa, Fla.), were housed in laminar airflow cabinets under pathogen-free conditions with a 12-h light/12-h dark schedule, and were fed autoclaved standard chow and water. To generate mice with xenografted tumors, tumor xenografts were initiated by subcutaneous (s.c.) injection of 107 human cancer cells into female nude mice. After about 4 weeks the resulting tumors were dissected and collected after removing necrosis tissues. The tumors were then cut into particles with size of 3 mm3 and transplanted s.c. by trocar needle into experimental animals. When tumors grew to the size of 50-60 mm3 (by volume), mice were randomized into groups and treated daily for 4-8 weeks by subcutaneous administration of 5 μg of GHRH antagonists MIA-602 or AVR-compounds (2-10 μg as indicated), or vehicle solutions (0.1% DMSO in 10% 1,2-propanediol) respectively. Tumor sizes were measured weekly.
Statistical analysis. One-way ANOVA followed by Bonferroni comparison were performed. Data are expressed as Mean±SEM. To determine statistical significance between animal groups, two-tailed Student's t-test was conducted. Differences were considered significant when p<0.05.
Results. […] FIG. 1A-N represents in vivo inhibition of tumor growth during the treatment with GHRH antagonist MIA-602 and selected AVR antagonists in nude mice xenografted with various human tumors including pancreatic cancer PANC-1 (FIG. 1A) and CFPAC-1 (FIG. 1I); lung cancer HCC827 (FIGS. 1B, C) and H460 (FIG. 1H); stomach cancer N87 (FIGS. 1D-F); colon cancer HT-29 (FIG. 1G); breast cancer MX-1 and HCC-1806 (FIGS. 1J, K); ovarian cancer SK-OV-3 and OVACAR-3 (FIGS. 1 L, M) and prostate cancer PC3 (FIG. 1N). See also Table 5.

`CCCC[C@H](NC(=O)[C@@H](NC(=O)[C@H](CC(=O)O)NC(=O)[C@H](CCC(N)=O)NC(=O)[C@H](CC(C)C)NC(=O)[C@H](CC(C)C)NC(=O)[C@H](CCCCN)NC(=O)[C@H](CCCNC(=N)N)NC(=O)[C@H](C)NC(=O)[C@H](CO)NC(=O)[C@H](CC(C)C)NC(=O)[C@H](CCC(N)=O)NC(=O)[C@H](CC)NC(=O)[C@H](CC(C)C)NC(=O)[C@@H](NC(=O)[C@H](CCCCN)NC(=O)[C@H](CCCNC(=N)N)NC(=O)[C@H](Cc1ccc(OC)cc1)NC(=O)[C@H](CCCCNC(=N)N)NC(=O)[C@H](C)NC(=O)[C@@H](NC(=O)[C@H](Cc1c(F)c(F)c(F)c(F)c1F)NC(=O)[C@@H](NC(=O)[C@H](C)NC(=O)[C@H](CC(=O)O)NC(=O)[C@@H](CCCNC(=N)N)NC(=O)[C@H](Cc1ccc(O)cc1)NC(=O)CCCCCCCCCCCNC(=O)Cc1c(F)c(F)c(F)c(F)c1F)[C@@H](C)CC)[C@@H](C)O)C(C)C)[C@@H](C)CC)C(=O)N[C@H](CCCNC(=N)N)C(=O)N[C@@H](CCCCNC(=N)N)C(=O)NC` [AVR-235] ({Phenylacetyl(2,3,4,5,6-F5)-12Ado}-Y[dR]DAI[Phe(F5)]TA[hArg]Y(Me)RKVL[Abu]QLSARKLLQDI[Nle][dR][hArg]-NHMe) was tested, and the “In vitro relative inhibitory potency in comparison to MIA-602, NCI-N87” value ([1]; Table 3B, 5 μM for 72 H, MIA-602 = 1) was 1.67, the “relative inhibitory potency in comparison to MIA-602, Stomach N87” value ([1]; antagonist 5 μM for 72 h, cell proliferation assay, MIA602 = 1) was 2.911 and the “In vitro relative inhibitory potency in comparison to MIA-602, HT-29” value [2] was 0.968. For the same compound, the “Tumor Growth %” value [3] was 771.0% and the “% Inhibition” value ([3]; vs control) was 41.2%.
